Structures can show the parent of a compound that is named as a salt.
Biological target: T1, human FGFR3 wild type enzyme (cytoplasmic domain) (Homo sapiens, UniProt P22607)
T1 construct: human FGFR3 wild type enzyme (cytoplasmic domain, from Carna Biosciences); purchased Carna Biosciences
Test: FGFR3 wild type mobility shift assay (enzymatic assay)
Assay type: biochemical
Conditions: 75 μM ATP, 50 minutes at 30° C, Caliper EZ reader II
Source text: FGFR3 Wild Type Mobility Shift Assay (Enzymatic Assay)

T1 sequence (P22607 397-806 limits assumed): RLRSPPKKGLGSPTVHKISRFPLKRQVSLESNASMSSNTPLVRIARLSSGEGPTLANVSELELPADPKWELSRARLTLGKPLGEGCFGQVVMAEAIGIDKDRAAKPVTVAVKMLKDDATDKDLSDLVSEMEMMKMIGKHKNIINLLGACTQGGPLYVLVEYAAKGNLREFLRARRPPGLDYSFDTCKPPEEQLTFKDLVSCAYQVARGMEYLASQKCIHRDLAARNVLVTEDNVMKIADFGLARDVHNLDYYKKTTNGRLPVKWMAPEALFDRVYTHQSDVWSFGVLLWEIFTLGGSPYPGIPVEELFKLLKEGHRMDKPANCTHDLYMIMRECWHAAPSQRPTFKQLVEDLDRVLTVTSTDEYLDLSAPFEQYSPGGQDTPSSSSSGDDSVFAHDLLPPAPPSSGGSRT

| SMILES | IC50 [nM] |
| --- | --- |
| CC(Nc1c(-c2nc3ccc(N4CCCCC4)cc3[nH]2)c(=O)[nH]c2cn(C)nc12)c1ncccn1 (single isomer, unassigned) [Compound 35, (R*)-2-methyl-6-(6-(piperidin-1-yl)-1H-benzo[d]imidazol-2-yl)-7-((1-(pyrimidin-2-yl)-ethyl)amino)-2H-pyrazolo[4,3-b]pyridin-5(4H)-one] | 39.2 |
| CC(Nc1c(-c2nc3ccc(OC4CCOCC4)cc3[nH]2)c(=O)[nH]c2cn(C)nc12)c1cocn1 (single isomer, unassigned) [Compound 37, (R*)-2-methyl-7-((1-(oxazol-4-yl)ethyl)amino)-6-(6-((tetrahydro-2H-pyran-4-yl)oxy)-1H-benzo[d]imidazol-2-yl)-2H-pyrazolo[4,3-b]pyridin-5(4H)-one] | 71.7 |
| CCC(Nc1c(-c2nc3ccc(N4CCOCC4)cc3[nH]2)c(=O)[nH]c2cn(C)nc12)c1ncccn1 (single isomer, unassigned) [Compound 40, (R*)-2-methyl-6-(6-morpholino-1H-benzo[d]imidazol-2-yl)-7-((1-(pyrimidin-2-yl)-propyl)amino)-2H-pyrazolo[4,3-b]pyridin-5(4H)-one] | 531 |
| COc1cc(N2CCOCC2)cc2[nH]c(-c3c(NC(C)c4ncccn4)c4nn(C)cc4[nH]c3=O)nc12 (single isomer, unassigned) [Compound 50, (R*)-6-(4-methoxy-6-morpholino-1H-benzo[d]imidazol-2-yl)-2-methyl-7-((1-(pyrimidin-2-yl)ethyl)amino)-2,4-dihydro-5H-pyrazolo[4,3-b]pyridin-5-one] | 95.7 |
| C[C@H](Nc1c(-c2nc3cnc(N4CCOCC4)cc3[nH]2)c(=O)[nH]c2cn(C)nc12)c1cocn1 [Compound 56, (S)-2-methyl-6-(6-morpholino-1H-imidazo[4,5-c]pyridin-2-yl)-7-((1-(oxazol-4-yl)ethyl)-amino)-2,4-dihydro-5H-pyrazolo[4,3-b]pyridin-5-one] | 156 |

Continued, values first:

| IC50 [nM] | SMILES |
| --- | --- |
| 88.3 | CC[C@H](Nc1c(-c2nc3ccc(N4CCOCC4)cc3[nH]2)c(=O)[nH]c2cn(CC)nc12)c1ncccn1 (single isomer, unassigned) [Compound 3, (S*)-2-ethyl-6-(6-morpholino-1H-benzo[d]imidazol-2-yl)-7-((1-(pyrimidin-2-yl)propyl)-amino)-2H-pyrazolo[4,3-b]pyridin-5(47f)-one] |
| 657 | CCn1cc2[nH]c(=O)c(-c3nc4ccc(N5CCOCC5)cc4[nH]3)c(NC(C)c3cocn3)c2n1 (single isomer, unassigned) [Compound 4B, (R*)-2-ethyl-6-(6-morpholino-1H-benzo[d]imidazol-2-yl)-7-((1-(oxazol-4-yl)ethyl)-amino)-2H-pyrazolo[4,3-b]pyridin-5(4H)-one] |
| 38.1 | CC(Nc1c(-c2nc3ccc(N4CCCCC4)c(F)c3[nH]2)c(=O)[nH]c2cn(C)nc12)c1ncccn1 (single isomer, unassigned) [Compound 16, (R*)-6-(7-fluoro-6-(piperidin-1-yl)-1H-benzo[d]imidazol-2-yl)-2-methyl-7-((1-(pyrimidin-2-yl)ethyl)amino)-2H-pyrazolo[4,3-b]pyridin-5(4H)-one] |
| 46.5 | C[C@H](Nc1c(-c2nc3c(F)cc(N4CCOCC4)c(F)c3[nH]2)c(=O)[nH]c2cn(C)nc12)c1ncccn1 (single isomer, unassigned) [Compound 17, (S*)-6-(4,7-difluoro-6-morpholino-1H-benzo[d]imidazol-2-yl)-2-methyl-7-((1-(pyrimidin-2-yl)ethyl)amino)-2H-pyrazolo[4,3-b]130pyridine-5(4H)-one] |
| 1240 | CC(Nc1c(-c2nc3cc(C(F)(F)F)c(N4CCOCC4)cc3[nH]2)c(=O)[nH]c2cn(C)nc12)c1ncccn1 (single isomer, unassigned) [Compound 20, (S*)2-Methyl-6-(6-morpholino-5-(trifluoromethyl)-1H-benzo[d]imidazol-2-yl)-7-((1-(pyrimidin-2-yl)ethyl)amino)-2H-pyrazolo[4,3-b]pyridin-5(4H)-one] |
| 469 | COCC(Nc1c(-c2nc3c(F)cc(N4CCOCC4)cc3[nH]2)c(=O)[nH]c2cn(C)nc12)c1ncccn1 (single isomer, unassigned) [Compound 30, (R*)-6-(4-fluoro-6-morpholino-1H-benzo[d]imidazol-2-yl)-7-((2-methoxy-1-(pyrimidin-2-yl)ethyl)amino)-2-methyl-2H-pyrazolo[4,3-b]pyridin-5(4H)-one] |
| 120 | C[C@H](Nc1c(-c2nc3ccc(N4CCN(C)CC4)cc3[nH]2)c(=O)[nH]c2cn(C)nc12)c1ncccc1C(F)(F)F (single isomer, unassigned) [Compound 31, (S*)-2-methyl-6-(6-(4-methylpiperazin-1-yl)-1H-benzo[d]imidazol-2-yl)-7-((1-(3-(trifluoromethyl)pyridin-2-yl)ethyl)amino)-2H-pyrazolo[4,3-b]pyridin-5(4H)-one 0.3 formate] |
| 811 | Cc1cc2nc(-c3c(N[C@@H](C)c4cocn4)c4nn(C)cc4[nH]c3=O)[nH]c2cc1N1CCOCC1 [Compound 55, (S)-2-methyl-6-(5-methyl-6-morpholino-1H-benzo[d]imidazol-2-yl)-7-((1-(oxazol-4-yl)-ethyl)amino)-2H-pyrazolo[4,3-b]pyridin-5(4H)-one] |

System: NIH/3T3 cells transfected with control vector
Test: NIH/3T3 mock cell proliferation assay (counter assay, CellTiter Glo)
Assay type: cell-based
Conditions: Mus musculus, NIH3T3, 72-hr incubation, top concentration 30 μM, counter assay for general toxicity, read-out: NIH/3T3 MOCK CTG (IC50)
Procedure: NIH/3T3 Mock Cell Proliferation Assay
In day 1, 90 μL of cell suspension (NIH/3T3 cells transfected with the same control vector as in the above two proliferation assays) (total 30,000 cells per well in growth medium (DMEM containing 1% Glutamax, 10% FBS and 1% Pen/Strep)) was seeded in a 96-well plate and then incubated overnight at 37° C. and 5% CO2. In day 2, 10 μL of growth medium containing 10-fold stock solution of testing compound was added into cell cultures (9 dose points with 3× serial dilution, starting with 30 μM, 0.3% DMSO final). After 72-hr incubation at 37° C. and 5% CO2, in day 5 a volume of 50 μL CellTiter Glo (CTG) reagent was added into cell-containing 96-well plate and the plate was incubated at room temperature for 10 minutes before RLUs (relative light unit) were measured on a microplate reader with luminescence detection module.

| SMILES | IC50 [nM] |
| --- | --- |
| CC(Nc1c(-c2nc3cc(C(F)(F)F)c(N4CCOCC4)cc3[nH]2)c(=O)[nH]c2cn(C)nc12)c1cocn1 (single isomer, unassigned) [Compound 10, (S*)-2-methyl-6-(6-morpholino-5-(trifluoromethyl)-1H-benzo[d]imidazol-2-yl)-7-((1-(oxazol-4-yl)ethyl)amino)-2H-pyrazolo[4,3-b]pyridin-5(4H)-one] | 18400 |
| CC(Nc1c(-c2nc3ccc(N4C[C@@H](C)O[C@H](C)C4)cc3[nH]2)c(=O)[nH]c2cn(C)nc12)c1ncccn1 (single isomer, unassigned) [Compound 12, 6-(6-((2R,6R)-2,6-dimethylmorpholino)-1H-benzo[d]imidazol-2-yl)-2-methyl-7-(((S*)-1-(pyrimidin-2-yl)ethyl)amino)-2H-pyrazolo[4,3-b]pyridin-5(4H)-one] | 454 |
